Assays:
[1] = Biodistribution of 18F-labelled tracers in rats; assay type: in vivo
Summary of the method: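 Sprague-Dawley rats received 18F tracer, and brain and peripheral tissues were analysed at 15 and 30 min and 1 and 4 h post-injection. For specificity, rats were pretreated 5 min beforehand with PK11195 or Ro 5-4864 (PBR) or flumazenil (CBR), each at 1 mg/kg.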

[2] = target: T1, peripheral benzodiazepine binding site (Rattus norvegicus, UniProt P16257); experiment: In vitro binding, [3H]-PK11195, kidney membrane preparation; conditions: PBR IC50 (nM), [3H]-PK11195 (2 nM), 4° C., 1 h
T1 construct: diluted kidney membrane preparation (200 μg); from tissue; host or cells: kidney membrane preparation
Summary of the method: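 Membrane binding terminated by rapid GF/B filtration, filters washed with ice-cold 50 mM Tris/HCl pH 7.4 and bound radioactivity counted by β-scintillation. Non-specific binding defined with PK11195 (10 μM) or, for the central benzodiazepine receptor, Flumazenil (20 μM). IC50 values calculated from displacement.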

[3] = SD rats, 15 min, decay correction not stated
[4] = SD rats, 4 hours, decay correction not stated
[5] = rats, 15 min, corrected for decay of 18F
[6] = rats, 15 min, not corrected for decay of 18F
[7] = rats, 30 min, corrected for decay of 18F
[8] = rats, 30 min, not corrected for decay of 18F
[9] = rats, 60 min (1 hour), not corrected for decay of 18F
[10] = rats, 60 min, corrected for decay of 18F
[11] = rats, 4 hours, corrected for decay of 18F
[12] = rats, 4 hours, not corrected for decay of 18F

Structure (SMILES): CCN(CC)C(=O)Cc1c(-c2ccc(OCCCF)cc2)nc2ccc(Cl)cn12 [PBR111, 2-(2-(4-(3-fluoropropoxy)phenyl)-6-chloroimidazo[1,2-a]pyridin-3-yl)-N,N-diethylacetamide]
- Biodistribution: Blood [1, 3]: 0.4 % ID/g
- Biodistribution: Bone [1, 3]: 0.87 % ID/g
- Biodistribution: Kidney [1, 3]: 3.2 % ID/g
- Biodistribution: Olfactory bulbs [1, 3]: 0.64 % ID/g
- Biodistribution: Adrenals ([1]; SD rats, 30 min, decay correction not stated): 6.5 % ID/g
- Biodistribution: Adrenals [1, 4]: 16 % ID/g
- Biodistribution: Blood [1, 4]: 0.1 % ID/g
- Biodistribution: Bone [1, 4]: 4.3 % ID/g
- Biodistribution: Kidney [1, 4]: 2.3 % ID/g
- Biodistribution: Olfactory bulbs [1, 4]: 0.41 % ID/g
- Biodistribution: Bone [1, 5]: 0.87 ± 0.12 % ID/g
- Biodistribution: Heart [1, 5]: 6.76 ± 0.82 % ID/g
- Biodistribution: Lungs [1, 5]: 14.39 ± 2.19 % ID/g
- Biodistribution: Skin [1, 5]: 0.34 ± 0.03 % ID/g
- Biodistribution: Adrenals [1, 6]: 8.36 ± 2.02 % ID/g
- Biodistribution: Bladder [1, 6]: 0.67 ± 0.36 % ID/g
- Biodistribution: Blood [1, 6]: 0.48 ± 0.11 % ID/g
- Biodistribution: Bone [1, 6]: 0.99 ± 0.18 % ID/g
- Biodistribution: Brain [1, 6]: 0.31 ± 0.06 % ID/g
- Biodistribution: GIT [1, 6]: 1.21 ± 0.11 % ID/g
- Biodistribution: Heart [1, 6]: 7.75 ± 1.08 % ID/g
- Biodistribution: Kidney [1, 6]: 5.18 ± 0.67 % ID/g
- Biodistribution: Liver [1, 6]: 1.54 ± 0.20 % ID/g
- Biodistribution: Lungs [1, 6]: 16.45 ± 2.81 % ID/g
- Biodistribution: Muscle [1, 6]: 0.68 ± 0.16 % ID/g
- Biodistribution: Olfactory bulbs [1, 6]: 0.74 ± 0.14 % ID/g
- Biodistribution: Pancreas [1, 6]: 2.33 ± 0.33 % ID/g
- Biodistribution: Skin [1, 6]: 0.39 ± 0.06 % ID/g
- Biodistribution: Spleen [1, 6]: 8.25 ± 2.25 % ID/g
- Biodistribution: Stomach [1, 6]: 0.95 ± 0.23 % ID/g
- Biodistribution: Testes [1, 6]: 0.35 ± 0.05 % ID/g
- Biodistribution: Thymus [1, 6]: 1.07 ± 0.23 % ID/g
- Biodistribution: Thyroid [1, 6]: 11.40 ± 0.33 % ID/g
- Biodistribution: Bone [1, 7]: 1.22 ± 0.10 % ID/g
- Biodistribution: Heart [1, 7]: 6.63 ± 0.35 % ID/g
- Biodistribution: Lungs [1, 7]: 8.41 ± 0.77 % ID/g
- Biodistribution: Skin [1, 7]: 0.37 ± 0.02 % ID/g
- Biodistribution: Adrenals [1, 8]: 9.06 ± 3.47 % ID/g
- Biodistribution: Bladder [1, 8]: 0.76 ± 0.16 % ID/g
- Biodistribution: Blood [1, 8]: 0.33 ± 0.11 % ID/g
- Biodistribution: Bone [1, 8]: 1.35 ± 0.27 % ID/g
- Biodistribution: Brain [1, 8]: 0.19 ± 0.04 % ID/g
- Biodistribution: GIT [1, 8]: 1.38 ± 0.36 % ID/g
- Biodistribution: Heart [1, 8]: 7.30 ± 0.90 % ID/g
- Biodistribution: Kidney [1, 8]: 4.77 ± 1.05 % ID/g
- Biodistribution: Liver [1, 8]: 0.94 ± 0.28 % ID/g
- Biodistribution: Lungs [1, 8]: 9.27 ± 1.60 % ID/g
- Biodistribution: Muscle [1, 8]: 0.62 ± 0.15 % ID/g
- Biodistribution: Olfactory bulbs [1, 8]: 0.60 ± 0.14 % ID/g
- Biodistribution: Pancreas [1, 8]: 1.49 ± 0.29 % ID/g
- Biodistribution: Skin [1, 8]: 0.41 ± 0.06 % ID/g
- Biodistribution: Spleen [1, 8]: 6.54 ± 1.35 % ID/g
- Biodistribution: Stomach [1, 8]: 1.18 ± 0.34 % ID/g
- Biodistribution: Testes [1, 8]: 0.38 ± 0.07 % ID/g
- Biodistribution: Thymus [1, 8]: 1.23 ± 0.47 % ID/g
- Biodistribution: Thyroid [1, 8]: 13.24 ± 4.62 % ID/g
- Biodistribution: Adrenals [1, 9]: 12.11 ± 3.32 % ID/g
- Biodistribution: Bladder [1, 9]: 1.24 ± 0.29 % ID/g
- Biodistribution: Blood [1, 9]: 0.24 ± 0.08 % ID/g
- Biodistribution: Bone [1, 9]: 2.41 ± 0.24 % ID/g
- Biodistribution: Brain [1, 9]: 0.17 ± 0.04 % ID/g
- Biodistribution: GIT [1, 9]: 1.89 ± 0.37 % ID/g
- Biodistribution: Heart [1, 9]: 8.41 ± 1.91 % ID/g
- Biodistribution: Kidney [1, 9]: 5.08 ± 1.23 % ID/g
- Biodistribution: Liver [1, 9]: 0.82 ± 0.22 % ID/g
- Biodistribution: Lungs [1, 9]: 7.29 ± 2.12 % ID/g
- Biodistribution: Muscle [1, 9]: 0.55 ± 0.11 % ID/g
- Biodistribution: Olfactory bulbs [1, 9]: 0.65 ± 0.14 % ID/g
- Biodistribution: Pancreas [1, 9]: 1.24 ± 0.36 % ID/g
- Biodistribution: Skin [1, 9]: 0.54 ± 0.07 % ID/g
- Biodistribution: Spleen [1, 9]: 6.72 ± 1.91 % ID/g
- Biodistribution: Stomach [1, 9]: 0.91 ± 0.06 % ID/g
- Biodistribution: Testes [1, 9]: 0.51 ± 0.09 % ID/g
- Biodistribution: Thymus [1, 9]: 1.39 ± 0.29 % ID/g
- Biodistribution: Thyroid [1, 9]: 13.04 ± 3.22 % ID/g
- Biodistribution: Bone [1, 10]: 2.04 ± 0.09 % ID/g
- Biodistribution: Lungs [1, 10]: 5.68 ± 1.03 % ID/g
- Biodistribution: Skin [1, 10]: 0.46 ± 0.02 % ID/g
- Biodistribution: Bone [1, 11]: 4.32 ± 0.33 % ID/g
- Biodistribution: Lungs [1, 11]: 3.02 ± 0.39 % ID/g
- Biodistribution: Skin [1, 11]: 0.63 ± 0.04 % ID/g
- Biodistribution: Adrenals [1, 12]: 17.81 ± 3.61 % ID/g
- Biodistribution: Bladder [1, 12]: 1.33 ± 0.17 % ID/g
- Biodistribution: Blood [1, 12]: 0.12 ± 0.02 % ID/g
- Biodistribution: Bone [1, 12]: 4.86 ± 0.86 % ID/g
- Biodistribution: Brain [1, 12]: 0.10 ± 0.02 % ID/g
- Biodistribution: GIT [1, 12]: 2.01 ± 0.27 % ID/g
- Biodistribution: Heart [1, 12]: 4.92 ± 0.66 % ID/g
- Biodistribution: Kidney [1, 12]: 2.57 ± 0.48 % ID/g
- Biodistribution: Liver [1, 12]: 0.44 ± 0.07 % ID/g
- Biodistribution: Lungs [1, 12]: 3.37 ± 0.40 % ID/g
- Biodistribution: Muscle [1, 12]: 0.19 ± 0.05 % ID/g
- Biodistribution: Olfactory bulbs [1, 12]: 0.47 ± 0.06 % ID/g
- Biodistribution: Pancreas [1, 12]: 0.61 ± 0.10 % ID/g
- Biodistribution: Skin [1, 12]: 0.71 ± 0.07 % ID/g
- Biodistribution: Spleen [1, 12]: 3.45 ± 0.43 % ID/g
- Biodistribution: Stomach [1, 12]: 0.51 ± 0.06 % ID/g
- Biodistribution: Testes [1, 12]: 0.67 ± 0.08 % ID/g
- Biodistribution: Thymus [1, 12]: 1.88 ± 0.40 % ID/g
- Biodistribution: Thyroid [1, 12]: 8.91 ± 1.19 % ID/g
- chromatographic logP (LogP HPLC): 3.2 ± 0.1
- IC50 [2]: 7.5 nM

Reference: patent US20100209345A1, “Fluorinated Ligands for Targeting Peripheral Benzodiazepine Receptors” (Australian Nuclear Science & Technology Organisation, priority 2006, published 2010)
